Activity calls are given as the source filed them. The rule behind the calls is not given here.
What was measured:
[1] = Stability of compound in DMSO; type: physicochemical
SCC-9 = assay: Cytotoxicity against human SCC9 cells assessed as reduction in cell viability after 6 days by SRB assay; type: functional, cell-based
SCC-25 = assay: Cytotoxicity against human SCC25 cells assessed as reduction in cell viability after 6 days by SRB assay; type: functional, cell-based
MM96L = assay: Cytotoxicity against human MM96L cells assessed as reduction in cell viability after 6 days by SRB assay; type: functional, cell-based
NFF = assay: Cytotoxicity against human NFF cells assessed as reduction in cell viability after 6 days by SRB assay; type: cell-based; details: 144 h
CAL-27 = assay: Cytotoxicity against human CAL27 cells assessed as reduction in cell viability after 6 days by SRB assay; type: functional, cell-based
SCC-15 = assay: Cytotoxicity against human SCC15 cells assessed as reduction in cell viability after 6 days by SRB assay; type: functional, cell-based
FaDu = assay: Cytotoxicity against human FADU cells assessed as reduction in cell viability after 6 days by SRB assay; type: functional, cell-based
MCF7 = assay: Cytotoxicity against human MCF7 cells assessed as reduction in cell viability after 6 days by SRB assay; type: functional, cell-based
Nakaseomyces glabratus = assay: Antifungal activity against Candida glabrata ATCC 90030 assessed as reduction in microbial growth up to 200 uM incubated for 24 to 48 hrs; type: functional, organism-based
Candida albicans = assay: Antifungal activity against Candida albicans ATCC 90028 assessed as reduction in microbial growth up to 200 uM incubated for 24 to 48 hrs; type: functional, organism-based
[Candida] auris [2] = Antifungal activity against Candida auris CBS 10913 assessed as reduction in microbial growth up to 200 uM incubated for 24 to 48 hrs; type: functional, organism-based; details: Candidozyma auris
[Candida] auris [3] = Antifungal activity against Candida auris CBS 12373 assessed as reduction in microbial growth up to 200 uM incubated for 24 to 48 hrs; type: functional, organism-based; details: Candidozyma auris
Pichia kudriavzevii = assay: Antifungal activity against Pichia kudriavzevii ATCC 6258 assessed as reduction in microbial growth up to 200 uM incubated for 24 to 48 hrs; type: functional, organism-based

| Compound | Stability [1] | Activity (SCC-9) | Activity (SCC-25) | Activity (MM96L) | Activity (NFF) | Activity (CAL-27) | Activity (SCC-15) | Activity (FaDu) | Activity (MCF7) | Activity (Nakaseomyces glabratus) | Activity (Candida albicans) | Activity ([Candida] auris [2]) | Activity ([Candida] auris [3]) | Activity (Pichia kudriavzevii) |
| --- | --- | --- | --- | --- | --- | --- | --- | --- | --- | --- | --- | --- | --- | --- |
| C[C@@H]1CCC[C@@]2(C)[C@H](C1=O)[C@@H](C(C)(C)O)C[C@@H]2O | Unstable | – | – | – | – | – | – | – | – | – | – | – | – | – |
| C/C1=C\CC[C@@]2(C)O[C@@H]2CC(C)(C)/C=C/C1=O [ZERUMBONE EPOXIDE] | – | inactive | inactive | inactive | Non-Toxic | inactive | inactive | inactive | inactive | – | – | – | – | – |
| C/C1=C/CC[C@@]2(C)O[C@@H]2CC(C)(C)/C=C/C1=O | – | inactive | inactive | inactive | Non-Toxic | inactive | inactive | inactive | inactive | inactive | inactive | inactive | inactive | inactive |
